Reference: PubChem BioAssay (NCI)
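Interpolation was linear, between the two tested concentrations surrounding the appropriate level; five concentrations were tested over 48 hours in 96-well plates. TGI is the concentration that stops growth completely.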

Legend:
Assay in all cases: DTP human tumour cell line panel, 48 h
OVCAR-8 ovarian = tested on: OVCAR-8 ovarian
SNB-75 CNS = tested on: SNB-75 CNS
SF-295 CNS = tested on: SF-295 CNS
HT29 colon = tested on: HT29 colon
CCRF-CEM leukemia = tested on: CCRF-CEM leukemia
SN12C renal = tested on: SN12C renal
ACHN renal = tested on: ACHN renal
MALME-3M melanoma = tested on: MALME-3M melanoma
HOP-62 NSCLC = tested on: HOP-62 NSCLC
TK-10 renal = tested on: TK-10 renal
HL-60(TB) leukemia = tested on: HL-60(TB) leukemia
CAKI-1 renal = tested on: CAKI-1 renal
LXFL 529 NSCLC = tested on: LXFL 529 NSCLC
XF 498 CNS = tested on: XF 498 CNS
A549 NSCLC = tested on: A549 NSCLC
M19-MEL melanoma = tested on: M19-MEL melanoma
UO-31 renal = tested on: UO-31 renal
SF-268 CNS = tested on: SF-268 CNS
U251 CNS = tested on: U251 CNS
COLO 205 colon = tested on: COLO 205 colon
SK-MEL-28 melanoma = tested on: SK-MEL-28 melanoma
NCI-H522 lung = tested on: NCI-H522 lung
IGROV1 ovarian = tested on: IGROV1 ovarian
OVCAR-3 ovarian = tested on: OVCAR-3 ovarian
DMS 114 small cell lung = tested on: DMS 114 small cell lung
HCC-2998 colon = tested on: HCC-2998 colon
LOX IMVI melanoma = tested on: LOX IMVI melanoma
SW-620 colon = tested on: SW-620 colon
HOP-92 NSCLC = tested on: HOP-92 NSCLC
NCI-H460 lung = tested on: NCI-H460 lung
K-562 leukemia = tested on: K-562 leukemia
OVCAR-5 ovarian = tested on: OVCAR-5 ovarian
DLD-1 colon = tested on: DLD-1 colon
SK-MEL-5 melanoma = tested on: SK-MEL-5 melanoma
SNB-19 CNS = tested on: SNB-19 CNS
HOP-18 NSCLC = tested on: HOP-18 NSCLC
SR leukemia = tested on: SR leukemia
KM12 colon = tested on: KM12 colon
UACC-257 melanoma = tested on: UACC-257 melanoma
DMS 273 small cell lung = tested on: DMS 273 small cell lung
SNB-78 CNS = tested on: SNB-78 CNS
OVCAR-4 ovarian = tested on: OVCAR-4 ovarian
786-0 renal = tested on: 786-0 renal
UACC-62 melanoma = tested on: UACC-62 melanoma
MOLT-4 leukemia = tested on: MOLT-4 leukemia
M14 melanoma = tested on: M14 melanoma
RXF 393 renal = tested on: RXF 393 renal
HCT-116 colon = tested on: HCT-116 colon
SF-539 CNS = tested on: SF-539 CNS
NCI-H23 lung = tested on: NCI-H23 lung
NCI-H226 lung = tested on: NCI-H226 lung
RPMI-8226 leukemia = tested on: RPMI-8226 leukemia
SK-MEL-2 melanoma = tested on: SK-MEL-2 melanoma
HCT-15 colon = tested on: HCT-15 colon
KM20L2 colon = tested on: KM20L2 colon
SK-OV-3 ovarian = tested on: SK-OV-3 ovarian

CCOC(=O)c1cc2c(cn1)[nH]c1cccc(N)c12
TGI (OVCAR-8 ovarian): > 100 µM | TGI (SNB-75 CNS): > 100 µM | TGI (SF-295 CNS): > 100 µM | TGI (HT29 colon): > 100 µM | TGI (CCRF-CEM leukemia): > 100 µM | TGI (SN12C renal): > 100 µM | TGI (ACHN renal): > 100 µM | TGI (MALME-3M melanoma): > 100 µM | TGI (HOP-62 NSCLC): > 100 µM | TGI (TK-10 renal): > 100 µM | TGI (HL-60(TB) leukemia): 28.6 µM | TGI (CAKI-1 renal): > 100 µM | TGI (LXFL 529 NSCLC): > 100 µM | TGI (XF 498 CNS): > 100 µM | TGI (A549 NSCLC): > 100 µM | TGI (M19-MEL melanoma): > 100 µM | TGI (UO-31 renal): > 100 µM | TGI (SF-268 CNS): > 100 µM | TGI (U251 CNS): > 100 µM | TGI (COLO 205 colon): > 100 µM | TGI (SK-MEL-28 melanoma): > 100 µM | TGI (NCI-H522 lung): > 100 µM | TGI (IGROV1 ovarian): > 100 µM | TGI (OVCAR-3 ovarian): > 100 µM | TGI (DMS 114 small cell lung): > 100 µM | TGI (HCC-2998 colon): > 100 µM | TGI (LOX IMVI melanoma): > 100 µM | TGI (SW-620 colon): > 100 µM | TGI (HOP-92 NSCLC): > 100 µM | TGI (NCI-H460 lung): > 100 µM | TGI (K-562 leukemia): > 100 µM | TGI (OVCAR-5 ovarian): > 100 µM | TGI (DLD-1 colon): > 100 µM | TGI (SK-MEL-5 melanoma): > 100 µM | TGI (SNB-19 CNS): > 100 µM | TGI (HOP-18 NSCLC): > 100 µM | TGI (SR leukemia): > 100 µM | TGI (KM12 colon): > 100 µM | TGI (UACC-257 melanoma): > 100 µM | TGI (DMS 273 small cell lung): > 100 µM | TGI (SNB-78 CNS): > 100 µM | TGI (OVCAR-4 ovarian): > 100 µM | TGI (786-0 renal): > 100 µM | TGI (UACC-62 melanoma): > 100 µM | TGI (MOLT-4 leukemia): > 100 µM | TGI (M14 melanoma): > 100 µM | TGI (RXF 393 renal): > 100 µM | TGI (HCT-116 colon): > 100 µM | TGI (SF-539 CNS): > 100 µM | TGI (NCI-H23 lung): > 100 µM

CC(=O)Nc1ccc(-c2nnc(SCC(=O)Nc3cccc([N+](=O)[O-])c3)o2)cc1
TGI (OVCAR-8 ovarian): 33.4 µM | TGI (SNB-75 CNS): 32.9 µM | TGI (SF-295 CNS): 32 µM | TGI (NCI-H226 lung): 23.6 µM | TGI (HT29 colon): 37.2 µM | TGI (CCRF-CEM leukemia): > 100 µM | TGI (SN12C renal): 33.2 µM | TGI (ACHN renal): 43.7 µM | TGI (MALME-3M melanoma): 23.9 µM | TGI (HOP-62 NSCLC): 45.8 µM | TGI (TK-10 renal): 67.5 µM | TGI (HL-60(TB) leukemia): 58.2 µM | TGI (CAKI-1 renal): 55.8 µM | TGI (RPMI-8226 leukemia): 75.8 µM | TGI (LXFL 529 NSCLC): 17 µM | TGI (SK-MEL-2 melanoma): 37.2 µM | TGI (A549 NSCLC): 46.3 µM | TGI (M19-MEL melanoma): 28.3 µM | TGI (UO-31 renal): 39.8 µM | TGI (SF-268 CNS): 31.7 µM | TGI (U251 CNS): 29.3 µM | TGI (COLO 205 colon): 33.8 µM | TGI (SK-MEL-28 melanoma): 33.3 µM | TGI (NCI-H522 lung): 22.4 µM | TGI (IGROV1 ovarian): 31.4 µM | TGI (OVCAR-3 ovarian): 40.5 µM | TGI (HCT-15 colon): 46.2 µM | TGI (DMS 114 small cell lung): 22.3 µM | TGI (LOX IMVI melanoma): 23 µM | TGI (SW-620 colon): 44 µM | TGI (HOP-92 NSCLC): 35.3 µM | TGI (NCI-H460 lung): 28.8 µM | TGI (K-562 leukemia): 57.5 µM | TGI (OVCAR-5 ovarian): 50.2 µM | TGI (DLD-1 colon): 35.5 µM | TGI (SK-MEL-5 melanoma): 27.1 µM | TGI (HOP-18 NSCLC): 65.9 µM | TGI (SR leukemia): 89.2 µM | TGI (KM12 colon): 39.4 µM | TGI (UACC-257 melanoma): 51.4 µM | TGI (DMS 273 small cell lung): 23.5 µM | TGI (SNB-78 CNS): 50 µM | TGI (OVCAR-4 ovarian): 25.3 µM | TGI (786-0 renal): 40.6 µM | TGI (UACC-62 melanoma): 23.7 µM | TGI (MOLT-4 leukemia): > 100 µM | TGI (M14 melanoma): 29.7 µM | TGI (RXF 393 renal): 25.7 µM | TGI (HCT-116 colon): 27.4 µM | TGI (KM20L2 colon): 37.4 µM | TGI (SF-539 CNS): 31.4 µM | TGI (SK-OV-3 ovarian): 24.5 µM | TGI (NCI-H23 lung): 21.2 µM
